From patent US20180267043A1, “USE OF BIOMARKERS FOR PREDICTING CLINICAL SENSITIVITY TO CANCER TREATMENT” (CELGENE CORPORATION, priority 2014, published 2018)

Experiments:
[1] = molecular target: T1, human CRBN isoform 2 (IKZF1/3, GSPT1/2 as substrates) (Homo sapiens, UniProt Q96SW2); assay: Substrate degradation in CRBN−/− cells expressing human CRBN isoform 2 or mutants; type: cell-based; details: cells expressing human CRBN isoform 2
T1 construct: expressed in transfected cells; host or cells: CRBN-/- cells (elsewhere: 293FT, CRISPR)
T1 sequence (Q96SW2 1-441 isoform Q96SW2-2): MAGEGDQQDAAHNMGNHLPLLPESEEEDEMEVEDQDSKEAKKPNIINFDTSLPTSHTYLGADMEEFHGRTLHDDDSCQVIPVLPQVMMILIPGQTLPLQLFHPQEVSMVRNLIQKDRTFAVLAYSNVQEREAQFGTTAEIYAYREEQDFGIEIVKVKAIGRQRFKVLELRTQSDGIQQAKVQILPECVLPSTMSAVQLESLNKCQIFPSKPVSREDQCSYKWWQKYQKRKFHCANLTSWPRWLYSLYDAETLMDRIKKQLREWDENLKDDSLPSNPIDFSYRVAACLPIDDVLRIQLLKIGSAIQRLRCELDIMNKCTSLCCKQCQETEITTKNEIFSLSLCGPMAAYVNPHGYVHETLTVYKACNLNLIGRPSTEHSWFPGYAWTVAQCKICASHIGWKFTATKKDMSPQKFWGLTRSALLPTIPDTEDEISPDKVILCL
T1 sequence (Q16531 whole entry partner, canonical isoform): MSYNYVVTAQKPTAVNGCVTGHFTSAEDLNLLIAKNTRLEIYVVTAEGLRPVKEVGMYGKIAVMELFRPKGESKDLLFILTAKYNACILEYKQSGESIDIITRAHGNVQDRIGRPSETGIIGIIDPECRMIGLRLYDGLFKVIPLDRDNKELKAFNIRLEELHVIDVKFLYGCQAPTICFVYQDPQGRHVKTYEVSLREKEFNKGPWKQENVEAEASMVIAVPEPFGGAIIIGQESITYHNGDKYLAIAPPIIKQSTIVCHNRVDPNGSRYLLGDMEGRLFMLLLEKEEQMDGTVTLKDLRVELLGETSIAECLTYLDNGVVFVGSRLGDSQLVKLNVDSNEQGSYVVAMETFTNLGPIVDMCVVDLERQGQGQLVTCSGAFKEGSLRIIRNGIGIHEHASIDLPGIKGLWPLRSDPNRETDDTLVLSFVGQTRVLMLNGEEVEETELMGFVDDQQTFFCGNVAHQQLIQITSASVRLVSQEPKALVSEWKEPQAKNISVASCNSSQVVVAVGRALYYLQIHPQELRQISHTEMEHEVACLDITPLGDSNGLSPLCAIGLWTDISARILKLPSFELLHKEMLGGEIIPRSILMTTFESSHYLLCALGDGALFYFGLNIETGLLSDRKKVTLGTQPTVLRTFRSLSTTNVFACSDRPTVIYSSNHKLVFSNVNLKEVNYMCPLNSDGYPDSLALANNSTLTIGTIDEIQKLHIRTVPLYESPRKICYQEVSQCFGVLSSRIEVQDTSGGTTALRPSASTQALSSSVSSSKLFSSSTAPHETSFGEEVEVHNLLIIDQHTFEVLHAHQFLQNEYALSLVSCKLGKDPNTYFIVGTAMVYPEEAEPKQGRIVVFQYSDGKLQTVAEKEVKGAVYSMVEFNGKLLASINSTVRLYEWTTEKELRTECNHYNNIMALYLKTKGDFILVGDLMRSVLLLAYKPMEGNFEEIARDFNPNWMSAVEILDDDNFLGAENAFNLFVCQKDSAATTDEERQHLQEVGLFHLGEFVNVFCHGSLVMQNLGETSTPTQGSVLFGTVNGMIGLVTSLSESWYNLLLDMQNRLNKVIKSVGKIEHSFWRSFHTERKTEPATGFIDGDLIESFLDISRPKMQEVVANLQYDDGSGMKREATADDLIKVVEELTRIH
Description: (§1) They were co-expressed together with GFP in CRBN −/− cells. These cells also expressed human CRBN isoform 2, or various specific mutants (hCRBNiso2 E376V, hCRBNiso2 V387I, or hCRBNiso2 W385A) by transfection with corresponding DNA.

[2] = system: human CRBN isoform 2 (IKZF1/3, GSPT1/2 as substrates); assay: as above; type: cell-based; details: CRBN−/− cells without human CRBN; 10 μM lenalidomide or 1 μM Compound C
Description: as §1

[3] = molecular target: T2, human CRBN isoform 2 (IKZF1/3, GSPT1/2 as substrates) (Homo sapiens, UniProt Q96SW2, E377V); assay: as above; type: cell-based; details: hCRBNiso2 E376V; 1 μM Compound C
T2 construct: expressed in transfected cells; host or cells: CRBN-/- cells (elsewhere: 293FT, CRISPR)
T2 sequence (Q96SW2 1-441 isoform Q96SW2-2 E376V): as the sequence (Q96SW2 1-441 isoform Q96SW2-2) above, with E376V counted along it
T2 sequence (Q16531 whole entry partner, canonical isoform): as the sequence (Q16531 whole entry partner, canonical isoform) above
Description: as §1

[4] = molecular target: T3, human CRBN isoform 2 (IKZF1/3, GSPT1/2 as substrates) (Homo sapiens, UniProt Q96SW2, V388I); assay: as above; type: cell-based; details: hCRBNiso2 V387I; 1 μM Compound C
T3 construct: expressed in transfected cells; host or cells: CRBN-/- cells (elsewhere: 293FT, CRISPR)
T3 sequence (Q96SW2 1-441 isoform Q96SW2-2 V387I): as the sequence (Q96SW2 1-441 isoform Q96SW2-2) above, with V387I counted along it
T3 sequence (Q16531 whole entry partner, canonical isoform): as the sequence (Q16531 whole entry partner, canonical isoform) above
Description: as §1

PERK/EIF2a/ATF4 pathway = assay: mRNA expression of PERK/EIF2a/ATF4 pathway components in DF15 MM cells; type: cell-based, human; details: 20 nM
Protocol: (§2) Cells were treated with DMSO alone or 20 nM Compound C. After 5 or 10 hours, the expression level of various cellular components along UPR or apoptosis pathways was measured. […] Loss of BIP immunoreactivity indicates an induction of UPR.

[5] = system: GSPT1, IKZF1, IKZF3, UPR or apoptosis pathways; assay: Protein level of UPR and apoptosis components in DF15 cells; type: cell-based, human; details: DF15, 20 nM, 5 or 10 hours
Protocol: as §2

DF15 = assay: CellTiter-Glo cell viability assay after GSPT1 knockdown, DF15; type: cell-based, human; details: DF15 expressing shGSPT1-1 or shGSPT1-3 vs parental or control shRNA, 0.01 nM to 0.1 μM, day 9
Protocol: (§3) The effect of depletion of GSPT1 on the anti-proliferative effect of Compound C was determined in human multiple myeloma (MM) cell lines DF15 and RPMI-8226. Treatment compounds were titrated from 0.01 nM to 0.1 μM. Cell proliferation was measured by the CellTiter-Glo cell viability assay (RLU-Relative Luminescent Unit) at day 9 after GSPT1 knockdown by shGSPT1-1 or shGSPT1-3.

GSPT1 = molecular target: T4, GSPT1 (Homo sapiens, UniProt P15170); assay: GSPT1 expression level in HEK 293FT cells after compound treatment; type: cell-based; details: CRBN+/+ cells, 10 hours, 100 nM or 1000 nM, compared to CRBN−/− cells
T4 construct: endogenous in cells; host or cells: HEK 293FT cells (CRBN+/+)
T4 sequence (P15170 whole entry): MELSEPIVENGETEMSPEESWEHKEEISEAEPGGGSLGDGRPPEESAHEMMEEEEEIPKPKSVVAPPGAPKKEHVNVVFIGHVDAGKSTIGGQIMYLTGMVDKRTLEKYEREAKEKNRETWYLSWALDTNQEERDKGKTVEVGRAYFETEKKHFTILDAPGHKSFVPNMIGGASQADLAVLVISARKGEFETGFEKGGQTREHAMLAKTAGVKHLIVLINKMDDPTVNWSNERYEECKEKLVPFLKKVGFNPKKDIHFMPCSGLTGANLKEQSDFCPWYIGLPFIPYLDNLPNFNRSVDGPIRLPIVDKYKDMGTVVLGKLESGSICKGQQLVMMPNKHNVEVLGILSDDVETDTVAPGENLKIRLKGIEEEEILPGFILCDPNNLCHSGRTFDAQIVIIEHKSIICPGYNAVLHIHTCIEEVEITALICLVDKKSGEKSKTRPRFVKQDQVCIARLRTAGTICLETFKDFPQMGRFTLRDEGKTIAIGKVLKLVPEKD
T4 sequence (Q96SW2 whole entry, further chain): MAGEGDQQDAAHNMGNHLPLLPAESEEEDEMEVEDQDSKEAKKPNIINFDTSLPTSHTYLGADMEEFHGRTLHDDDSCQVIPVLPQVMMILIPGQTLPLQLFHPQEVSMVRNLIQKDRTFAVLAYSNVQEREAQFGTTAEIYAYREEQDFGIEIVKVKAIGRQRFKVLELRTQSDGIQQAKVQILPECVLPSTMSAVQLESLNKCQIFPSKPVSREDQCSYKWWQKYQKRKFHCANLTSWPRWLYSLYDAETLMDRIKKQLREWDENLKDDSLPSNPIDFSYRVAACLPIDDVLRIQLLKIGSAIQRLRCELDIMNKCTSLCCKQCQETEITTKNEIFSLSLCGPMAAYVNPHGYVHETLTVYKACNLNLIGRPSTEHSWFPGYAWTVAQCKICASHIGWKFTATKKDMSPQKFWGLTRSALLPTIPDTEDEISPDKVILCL
T4 sequence (Q16531 whole entry partner): as the sequence (Q16531 whole entry partner, canonical isoform) above

[6] = system: GSPT1, BIP, ER stress or apoptosis pathways; assay: Expression level of ER stress and apoptosis components in 293FT HEK cells; type: cell-based, human; details: 20 hours
Protocol: CRBN+/+ and CRBN−/− cells were treated with DMSO alone, 1 nM, or 10 nM Compound C. After 20 hours, the expression level of various cellular components along the endoplasmic reticulum (ER) stress or apoptosis pathways was measured. […] BIP is an ER luminal KDEL protein that requires binding with KDEL receptor in the cis-Golgi to be retro-transported into the ER lumen for retention. Loss of GSPT1 leads to the inactivation of the eRF1/GSPT1 complex and therefore allows translation readthrough of de novo sysnthesized proteins such as BIP. Addition of extra residues to the BIP C-terminus blocks the recognization of KDEL motif and BIP C-terminal epitopes by the KDEL receptor and BIP C-terminal antibodies, respectively. […] BIP interacts with the ER luminal domain of UPR sensors PERK, IRE1, and ATF6 to prevent their activation. Reduction of BIP C-terminal immunoreactivity indicates a mislocalization of BIP, which presumably leads to its dissociation from PERK, IRE1, and ATF6 and induces UPR.

U937 = assay: CellTiter-Glo cell viability assay, U937; type: cell-based, human; details: 48 hours
Protocol: The effect of overexpression of GSPT1 on the anti-proliferative effect of Compound C was determined in human histiocytic lymphoma cell line U937 and human leukemia cell line Molm13. Treatment compounds were titrated from 0.1 nM to 1 μM. Cell proliferation was measured by CellTiter-Glo cell viability assay at 48 hours after treatment.

[7] = system: GSPT1/eRF3a, GSPT2/eRF3b, and HBS1L/eRF3c; assay: Immunoblotting of CRBN/Compound C substrates in 293 HEK cells; type: cell-based, human; details: 8 hours
Protocol: Immunblotting analysis was performed to confirm GSPT1/eRF3a, GSPT2/eRF3b, and HBS1L/eRF3c as authentic substrates of the CRBN/Compound C complex. 293 HEK cells transiently transfected with HA-tagged HBS1L or FLAG-tagged GSPT2 were treated with Compound at the indicated concentrations for 8 hours.

HEK 293FT cells = assay: CellTiter-Glo cell viability assay, HEK 293FT cells with GSPT1 overexpression; type: cell-based, human
Protocol: The effect of overexpression of GSPT1 on Compound C-induced growth inhibition was tested in HEK 293FT cells. 293 cells stably expressing GSPT1 driven by three different promoters were generated. To these cells, Compound C was added at concentration of 0, 1 nM, 10 nM, 100 nM, or 1000 nM. Cell proliferation was measured by CellTiter-Glo cell viability assay (RLU-Relative Luminescent Unit) at day 2. […] The expression level of GSPT1 was measured at 10 hours after compound treatment in the right part of FIG. 7. […] Thus, overexpression of GSPT1 confers Compound C resistance to HEK 293FT cells.

RPMI-8226 = assay: CellTiter-Glo cell viability assay after GSPT1 knockdown, RPMI-8226; type: cell-based, human; details: RPMI-8226 expressing shGSPT1-1 or shGSPT1-3 vs parental or control shRNA, 0.01 nM to 0.1 μM, day 9
Protocol: as §3

Question: For `Cc1ccc(NC(=O)NCc2ccc3c(c2)CN(C2CCC(=O)NC2=O)C3=O)cc1Cl` (stereo not drawn) [Compound C, 1-(3-chloro-4-methylphenyl)-3-((2-(2,6-dioxopiperidin-3-yl)-1-oxoisoindolin-5-yl)methyl)urea], which “Destruction of GSPT1/2” value ([1]; 1 μM Compound C) is on record?
Answer: The value was “induces destruction of IKZF1/3 and GSPT1/2”.

Question: And the “Destruction of IKZF1/3” value ([1]; 10 μM lenalidomide or 1 μM Compound C)?
Answer: Its value is “induces destruction of IKZF1/3 and GSPT1/2”.

Question: And the “Degradation of tested substrates (IKZF1/3, GSPT1/2)” value [2]?
Answer: Its value is “neither compound triggers degradation of any tested substrate”.

Question: What about the “Degradation of GSPT1/2” value [3] of the same compound?
Answer: Its value is “abolishes Compound C-induced degradation of GSPT1/2”.

Question: What about the “Degradation of IKZF1/3” value [4] of the same compound?
Answer: Its value is “abolishes Compound C-induced degradation of IKZF1/3”.

Question: And the “Expression of ATF4, ATF3, DDIT3, PPP1R15A, and GADD45A (FIG. 16C)” value (PERK/EIF2a/ATF4 pathway)?
Answer: The value was “Compound C-induced expression of ATF4, ATF3, DDIT3, PPP1R15A, and GADD45A”.

Question: And the “Degradation of GSPT1, IKZF1, and IKZF3” value [5]?
Answer: The value was “induces degradation of GSPT1, IKZF1, and IKZF3”.

Question: What about the “Immunoreactivity of antibodies recognizing KDEL motif and BIP C-terminal epitope” value [5] of the same compound?
Answer: Its value is “loss of immunoreactivity”.

Question: What about the “Level of pEIF2α, ATF4, ATF3, DDIT3, cleaved caspase 3, and cleaved PARP” value [5] of the same compound?
Answer: Its value is “increases the level”.

Question: And the Anti-proliferative effect (DF15)?
Answer: Its Anti-proliferative effect is “increased anti-proliferative effect”.

Question: And the GSPT1 expression level (GSPT1)?
Answer: The GSPT1 expression level was “GSPT1 is degraded in CRBN+/+ cells”.

Question: And the “Degradation of GSPT1” value ([6]; 293FT CRBN+/+ cells, 1 nM or 10 nM)?
Answer: Its value is “induces degradation of GSPT1 in CRBN+/+ cells”.

Question: What about the “Cellular components in acute apoptotic cell death” value ([6]; 293FT HEK cells) of the same compound?
Answer: Its value is “are not affected”.

Question: What about the “Immunoreactivity of BIP antibody that binds to BIP amino-terminal region” value ([6]; 293FT, 1 nM or 10 nM) of the same compound?
Answer: The value was “is not affected”.

Question: What about the “Immunoreactivity of KDEL antibody and BIP carboxyl-terminus (BIP-CT) antibody” value ([6]; 293FT, 1 nM or 10 nM, dose dependent) of the same compound?
Answer: The value was “dramatically decreased”.

Question: What about the Anti-proliferative effect (U937; U937, exogenous GSPT1 overproduced via EF1a promoter) of the same compound?
Answer: Its Anti-proliferative effect is “the anti-proliferative effect of Compound C reduces”.

Question: And the Anti-proliferative effect (U937; U937 CRBN −/− cells)?
Answer: The Anti-proliferative effect was “completely abolished”.

Question: What about the Cell proliferation (U937; U937 parental cells, 0.1 nM to 1 μM) of the same compound?
Answer: The Cell proliferation was “inhibits cell proliferation”.

Question: What about the “Binding partners of CRBN induced by compound binding” value [7] of the same compound?
Answer: Its value is “GSPT1/eRF3a, GSPT2/eRF3b, and HBS1L/eRF3c are binding partners of CRBN induced by Compound C binding”.

Question: What about the “Degradation of GSPT1/eRF3a, GSPT2/eRF3b, and HBS1L/eRF3c” value ([7]; increased concentration) of the same compound?
Answer: Its value is “induces degradation”.

Question: What about the “Cell proliferation (growth inhibition)” value (HEK 293FT cells; GSPT1 overexpression driven by different promoters, 0-1000 nM, day 2) of the same compound?
Answer: Its value is “confers various degrees of resistance to Compound C-induced growth inhibition”.

Question: What about the “Cell proliferation (compound resistance)” value (HEK 293FT cells; cells expressing CMV-GSPT1) of the same compound?
Answer: Its value is “exhibit the highest level of Compound C resistance”.

Question: What about the Cell proliferation (HEK 293FT cells; parental cells, 0-1000 nM, day 2) of the same compound?
Answer: Its Cell proliferation is “inhibits cell proliferation in parental cells”.

Question: And the Anti-proliferative effect (RPMI-8226)?
Answer: Its Anti-proliferative effect is “increased anti-proliferative effect”.
